For data set [1], the target named is T1, PSMA-expressing C4-2 cells (Homo sapiens, UniProt Q04609).
T1 construct: PSMA-expressing C4-2 cells (ATCC, Cat. No. CRL-3314) were cultured in RPMI-1640; host or cells: C4-2 cells
In words: FACS binding assay (competition with 50 nM PSM-0183). To be noted: C4-2 cells, read-out: pIC50 [C4-2] CAT (converted). The method, boiled down:
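Competition format: fluorescent tracer PSM-0183 (50 nM) displaced from PSMA on C4-2 cells by a test compound titration over 1 h at 4 °C. Bound tracer was quantified as flow-cytometric AF488 median fluorescence after washing. Four-parameter logistic fits of MFI data gave IC50 and pIC50.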
For orientation: A flow cytometer gives signals particle by particle.

The target in data set [2] is T2, Fc-fusion protein of human PSMA (hPSMA-Fc) (Homo sapiens, UniProt Q04609).
T2 construct: purchased Acro Biosystems PSA-H5264
T2 sequence (Q04609 44-750 limits assumed): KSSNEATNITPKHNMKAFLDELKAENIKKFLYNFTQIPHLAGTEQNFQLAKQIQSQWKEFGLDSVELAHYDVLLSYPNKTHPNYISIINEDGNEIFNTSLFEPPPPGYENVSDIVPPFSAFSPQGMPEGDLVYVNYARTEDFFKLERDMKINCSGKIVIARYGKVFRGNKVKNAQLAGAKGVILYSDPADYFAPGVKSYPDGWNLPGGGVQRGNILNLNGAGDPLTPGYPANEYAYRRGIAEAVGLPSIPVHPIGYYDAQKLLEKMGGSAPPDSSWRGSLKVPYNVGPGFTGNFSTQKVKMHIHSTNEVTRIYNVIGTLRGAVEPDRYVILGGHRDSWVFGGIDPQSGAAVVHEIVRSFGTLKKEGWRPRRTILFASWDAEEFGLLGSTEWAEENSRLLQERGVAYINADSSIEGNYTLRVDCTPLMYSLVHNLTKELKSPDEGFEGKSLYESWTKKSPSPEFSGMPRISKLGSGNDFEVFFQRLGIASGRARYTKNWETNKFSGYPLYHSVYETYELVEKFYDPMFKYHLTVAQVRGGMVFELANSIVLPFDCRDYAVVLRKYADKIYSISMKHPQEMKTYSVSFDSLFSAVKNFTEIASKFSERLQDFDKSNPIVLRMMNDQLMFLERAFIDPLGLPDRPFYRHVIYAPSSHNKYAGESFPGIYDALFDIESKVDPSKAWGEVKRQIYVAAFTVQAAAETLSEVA
In words: Surface plasmon resonance assay (Biacore T200, single cycle kinetic). To be noted: read-out: pKD CAT (converted). It is filed as binding. Put shortly:
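KD, expressed as pKD, came from 1:1 Langmuir fits of reference- and buffer-blank-subtracted SPR data. The runs were single-cycle kinetics at 25° C in HBST/0.1% DMSO over human PSMA-Fc, captured to ~1000 RU on a peptide-coated CM5 surface and regenerated with 10 mM glycine pH 1.5.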
A general note: Surface plasmon resonance follows binding to a sensor surface in real time, without labels.

Another data set concerns the target T3, recombinant human PSMA (Homo sapiens, UniProt Q04609).
T3 construct: purchased BioVision K440-100
In words: Enzyme inhibition assay (GCPII Inhibitor Screening Kit, fluorescence-based). To be noted: carboxypeptidase activity of recombinant human PSMA; highest final concentration 1 μM. It is filed as biochemical. The method, then:
This peptidase activity hydrolyzes γ-peptide bonds between N-acetyl amino acid and glutamate of its substrate.
The carboxypeptidase inhibition of recombinant human PSMA by test compounds was assessed using a commercial fluorescence-based PSMA activity inhibition assay.
The employed Glutamate Carboxypeptidase II (GCPII) Inhibitor Screening Kit (BioVision, Cat #K440-100) is a fluorescence-based, enzymatic in vitro assay to measure the potency of PSMA inhibitors. The provided substrate is […] in the presence of PSMA producing glutamate. The detection system is based on an enzymatic reaction in which a fluorogenic probe is reduced, generating a stable signal.
For the assay, recombinant human PSMA was diluted in GCPII Assay Buffer as recommended in the assay protocol. Serial dilutions of the test compounds were prepared, starting from 10 μM (final reaction concentration of 1 μM). In a 96-well assay plate, 40 μL of the PSMA working solution was mixed with 30 μL of GCPII Assay Buffer. Next, 10 μL of the serially diluted test compounds were added. The mixture was incubated for 20 min at 37° C. Subsequently, 20 μL of a reaction mix solution was added. The fluorescence signal increased due to fluorophore reduction, which is directly proportional to the produced amount of glutamate, was measured in kinetic mode for 90 minutes at 37° C. in a SpectraMax M5 plate reader. RFU/see was assessed by the SoftMax Pro software and plotted against peptide concentrations. Four-parameter logistic (4PL) curve fitting and pIC50 calculations were performed using the GraphPad Prism software.

For another data set, the system named is PC3-PIP tumor model. Set-up: species or system mice. To be noted: mouse, in vivo. The method, boiled down: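 Male nude mice bearing shoulder xenografts (5×10^6 PC3-PIP cells, or 5×10^6 or 1×10^7 C4-2 cells) received ~30 MBq of ^111In-labeled compound intravenously via tail vein. SPECT/CT regions of interest for heart, kidney and tumor gave % ID/g, mean of two to three animals per time point, range as error.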

[3] abbreviates: pKD category for PSMA SPR activity assay, hPSMA-Fc, 25° C.

The text below walks through data of patent publication US20260083865A1, “PROSTATE SPECIFIC MEMBRANE ANTIGEN (PSMA) LIGANDS AND USE THEREOF” (priority 2022, published 2026).

Read-outs that look alike come from different tables or passages of the source. Numbered stars: 1 amine (or outer) side, 2 acyl side, 3 side chain; on linkers, the order of the positions; unused ones are H or OH. Bridge positions count the residues as written; N and C are the ends. Square brackets hold non-standard residues; d marks the D form. Side chains are listed from the residue outwards. Peptide text beside a SMILES is read from it. * marks the point of attachment. DOTA = O=C(O)CN1CCN(CC(=O)O)CCN(CC(=O)*)CCN(CC(=O)O)CC1; Phe(4-Cl) = N[C@@H](Cc1ccc(Cl)cc1)C(=O)O; Arg(Me) = CNC(=N)NCCC[C@H](N)C(=O)O; Ethylenediamine = C(CN[*:2])N[*:1]; X1 = O=C(CC1CCN([*:1])CC1)[*:2]; Lys(Me) = CNCCCC[C@H](N)C(=O)O; Tle = CC(C)(C)[C@H](N)C(=O)O; Aib = CC(C)(N)C(=O)O; CO = O=C([*:1])[*:2]

T1 sequence (Q04609 whole entry): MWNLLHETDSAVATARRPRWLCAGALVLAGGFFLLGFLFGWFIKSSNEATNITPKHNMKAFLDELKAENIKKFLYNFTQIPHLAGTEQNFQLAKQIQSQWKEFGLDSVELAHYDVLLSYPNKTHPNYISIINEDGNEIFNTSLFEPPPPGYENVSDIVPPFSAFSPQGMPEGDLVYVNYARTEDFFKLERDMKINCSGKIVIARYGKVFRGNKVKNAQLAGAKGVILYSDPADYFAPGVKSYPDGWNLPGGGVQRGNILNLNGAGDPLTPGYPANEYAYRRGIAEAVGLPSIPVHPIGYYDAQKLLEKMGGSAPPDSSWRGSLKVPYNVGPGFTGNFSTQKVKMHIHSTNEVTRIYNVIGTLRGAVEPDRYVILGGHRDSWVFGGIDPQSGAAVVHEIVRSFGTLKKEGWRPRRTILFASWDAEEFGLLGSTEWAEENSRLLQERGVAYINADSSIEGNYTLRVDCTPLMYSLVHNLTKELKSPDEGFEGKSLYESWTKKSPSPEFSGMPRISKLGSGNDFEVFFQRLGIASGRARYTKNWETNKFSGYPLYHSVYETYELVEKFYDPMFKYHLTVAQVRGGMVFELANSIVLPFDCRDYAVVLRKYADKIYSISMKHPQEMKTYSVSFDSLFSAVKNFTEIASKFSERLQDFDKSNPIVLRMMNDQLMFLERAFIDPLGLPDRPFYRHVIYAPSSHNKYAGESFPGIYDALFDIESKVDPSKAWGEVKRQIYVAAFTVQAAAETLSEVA
T3 sequence (Q04609 whole entry): as above

For `CNCCCC[C@@H]1NC(=O)[C@@H](NC(=O)[C@H](Cc2ccc(Cl)cc2)NC(=O)C(C)(C)NC(=O)[C@@H](NC(=O)CC2CCN(C(=O)CN3CCN(CC(=O)O)CCN(CC(=O)O)CCN(CC(=O)O)CC3)CC2)[C@@H](C)O)CSSC[C@@H](C(=O)N[C@H](C(=O)N[C@H](C(N)=O)[C@@H](C)O)C(C)(C)C)NC(=O)[C@H](CC(N)=O)NC(=O)C(C)(C)NC(=O)[C@H](CCCNC(=N)NC)NC1=O` [PSM-0194, DOTA-Cmp-Thr-Aib-Pcf-[Cys-Lys(Me)-Arg(Me)-Aib-Asn-Cys]-Tle-Thr-NH2] ({DOTA}-[X1]T[Aib][Phe(4-Cl)]C[Lys(Me)][Arg(Me)][Aib]NC[Tle]T-NH2; disulfide 5-10), the IC50 in data set [1] (FACS binding, competition with 50 nM PSM-0183, category) was less than 200 nM; on recombinant human PSMA it was more than 1000 nM. In data set [2] (SPR, hPSMA-Fc, single cycle kinetic, 25° C., category), the Kd was less than 12.6 nM. Further, the “AUC ratio [T/K]” value in the data set with PC3-PIP tumor model is 6.7. For the same molecule, in the data set with PC3-PIP tumor model, the “Tumor AUC” value is listed as 180 % ID/g*h.

Consider `CC(=O)N[C@H](C(=O)NC(C)(C)C(=O)N[C@@H](Cc1ccccc1)C(=O)N[C@H]1CSSC[C@@H](C(=O)N[C@H](C(=O)N[C@H](C(=O)N[C@@H](CC(=O)O)C(N)=O)[C@@H](C)O)C(C)(C)C)NC(=O)[C@H](CC(N)=O)NC(=O)C(C)(C)NC(=O)[C@H](CCCNC(=N)N)NC(=O)[C@H](CCCCN)NC1=O)[C@@H](C)O` [PSM-0374, Ac-Thr-Aib-Phe-[Cys-Lys-Arg-Aib-Asn-Cys]-Tle-Thr-Asp-NH2] (Ac-T[Aib]FCKR[Aib]NC[Tle]TD-NH2; disulfide 4-9), for which the IC50 in data set [1] (pIC50 category of FACS binding) is less than 200 nM; on recombinant human PSMA, more than 1000 nM. Moreover, in data set [2] (setting [3]), the Kd was less than 12.6 nM.

Turning to `C[C@@H](O)[C@H](NC(=O)[C@@H](NC(=O)[C@@H]1CSSC[C@H](NC(=O)[C@H](Cc2ccc(Cl)cc2)NC(=O)C(C)(C)NC(=O)[C@@H](NC(=O)CC2CCN(C(=O)CN3CCN(CC(=O)O)CCN(CC(=O)O)CCN(CC(=O)O)CC3)CC2)[C@@H](C)O)C(=O)N[C@@H](CCCCN)C(=O)N[C@@H](CCCNC(=N)N)C(=O)N[C@@H](CCC(=O)O)C(=O)N[C@@H](CC(N)=O)C(=O)N1)C(C)(C)C)C(N)=O` [PSM-0416, DOTA-Cmp-Thr-Aib-Pcf-[Cys-Lys-Arg-Glu-Asn-Cys]-Tle-Thr-NH2] ({DOTA}-[X1]T[Aib][Phe(4-Cl)]CKRENC[Tle]T-NH2; disulfide 5-10), the IC50 is less than 200 nM in data set [1] (pIC50 category of FACS binding) and more than 1000 nM at recombinant human PSMA. Besides, the Kd in data set [2] (setting [3]) is less than 12.6 nM. Besides, the “AUC ratio [T/K]” value with PC3-PIP tumor model was found to be 1.6. For the same molecule, the “Tumor AUC” value in the data set on PC3-PIP tumor model was found to be 170 % ID/g*h.

For `CC(=O)NC(C)(C)C(=O)N[C@@H](Cc1ccc(Cl)cc1)C(=O)N[C@H]1CSSC[C@@H](C(=O)N[C@H](C(N)=O)C(C)(C)C)NC(=O)[C@H](CC(N)=O)NC(=O)C(C)(C)NC(=O)[C@H](CCCNC(=N)N)NC(=O)[C@H](CCCCN)NC1=O` [PSM-0424, Ac-Aib-Pcf-[Cys-Lys-Arg-Aib-Asn-Cys]-Tle-NH2] (Ac-[Aib][Phe(4-Cl)]CKR[Aib]NC[Tle]-NH2; disulfide 3-8), the values for the IC50 (in data set [1] (pIC50 category of FACS binding); at recombinant human PSMA) were less than 200 nM and more than 1000 nM, respectively. Further, the Kd in data set [2] (setting [3]) is less than 12.6 nM.

As for `CC(=O)NC(C)(C)C(=O)N[C@@H](Cc1ccc(Cl)cc1)C(=O)N[C@H]1CSSC[C@@H](C(=O)N[C@H](C(=O)NCCNC(=O)CN2CCN(CC(=O)O)CCN(CC(=O)O)CCN(CC(=O)O)CC2)C(C)(C)C)NC(=O)[C@H](CC(N)=O)NC(=O)C(C)(C)NC(=O)[C@H](CCCNC(=N)N)NC(=O)[C@H](CCCCN)NC1=O` [PSM-0516, Ac-Aib-Pcf-[Cys-Lys-Arg-Aib-Asn-Cys]-Tle-en-DOTA] (Ac-[Aib][Phe(4-Cl)]CKR[Aib]NC[Tle]-{Ethylenediamine-DOTA}; disulfide 3-8), the IC50 in data set [1] (pIC50 category of FACS binding) was less than 200 nM. For the same molecule, the Kd in data set [2] (setting [3]) was less than 12.6 nM. Also, the IC50 on recombinant human PSMA was more than 1000 nM. In the data set on PC3-PIP tumor model, the “AUC ratio [T/K]” value was 1.4 and the “Tumor AUC” value was found to be 250 % ID/g*h.

For the molecule `CCNC(=O)NC(=N)NCCC[C@@H]1NC(=O)[C@H](CCCCN)NC(=O)[C@@H](NC(=O)[C@H](Cc2ccc(Cl)cc2)NC(=O)C(C)(C)NC(=O)[C@@H](NC(=O)CC2CCN(C(=O)CN3CCN(CC(=O)O)CCN(CC(=O)O)CCN(CC(=O)O)CC3)CC2)[C@@H](C)O)CSSC[C@@H](C(=O)N[C@H](C(=O)N[C@H](C(N)=O)[C@@H](C)O)C(C)(C)C)NC(=O)[C@H](CC(N)=O)NC(=O)C(C)(C)NC1=O` [PSM-0579, DOTA-Cmp-Thr-Aib-Pcf-[Cys-Lys-Arg(EtCAyl)-Aib-Asn-Cys]-Tle-Thr-NH2] ({DOTA}-[X1]T[Aib][Phe(4-Cl)]CKR([CO-NHEt])[Aib]NC[Tle]T-NH2; disulfide 5-10), the IC50 in data set [1] (FACS binding, category) was less than 200 nM. Moreover, in data set [2] (PSMA SPR assay, category), the Kd was less than 12.6 nM. Besides, in the data set with PC3-PIP tumor model, the “AUC ratio [T/K]” value is 0.6 and the “Tumor AUC” value is on record as 110 % ID/g*h.

As for `C[C@@H](O)[C@H](NC(=O)[C@@H](NC(=O)[C@@H]1CSSC[C@H](NC(=O)[C@H](Cc2ccccc2)NC(=O)C(C)(C)NC(=O)[C@@H](NC(=O)CN2CCN(CC(=O)O)CCN(CC(=O)O)CCN(CC(=O)O)CC2)[C@@H](C)O)C(=O)N[C@@H](CCCCN)C(=O)N[C@@H](CCCNC(=N)N)C(=O)NC(C)(C)C(=O)N[C@@H](CC(N)=O)C(=O)N1)C(C)(C)C)C(N)=O` [PSM-0580, DOTA-Thr-Aib-Phe-[Cys-Lys-Arg-Aib-Asn-Cys]-Tle-Thr-NH2] ({DOTA}-T[Aib]FCKR[Aib]NC[Tle]T-NH2; disulfide 4-9), the IC50 in data set [1] (FACS binding, category) was less than 200 nM. The Kd in data set [2] (PSMA SPR assay, category) was less than 12.6 nM. Also, in the data set with PC3-PIP tumor model, the “AUC ratio [T/K]” value came out at 1.6 and the “Tumor AUC” value is 110 % ID/g*h.
